In patent US6943183B2 (Pfizer Inc, priority 2000, dated 2005):

Molecular target: T1, SF9 affinity purified rat FPT (Rattus norvegicus, UniProt Q02293+Q04631)
T1 construct: made in house; host or cells: Sf9 insect cells
Experiment: PFT (FPT) inhibitory activity assay, radiolabeled farnesyl pyrophosphate and biotinyl peptide, streptavidin beads
Assay type: biochemical
Conditions: HEPES buffer pH 7.4, 30° C., 30 minutes; read-out: FTase IC50
Procedure: The PFT or FPT inhibitory activity of compounds of the present invention were assayed in HEPES buffer (pH 7.4) containing 5 mM potassium phosphate and 20 μM ZnCl2. The solution also contained 5 mM DTT (dithiothreitol), 5 mM MgCl2, and 0.1% PEG 8000. Assays were performed in 96 well plates (Wallec) and employed solutions composed of varying concentrations of a compound of the present invention in 10% DMSO (dimethylsulfoxide). […] After incubation at 30° C. for 30 minutes, the reaction was terminated by diluting the reaction 2.5-fold with a stop buffer containing 1.5 M magnesium acetate, 0.2 M H3PO4, 0.5% BSA (bovine serum albumin), and strepavidin beads (Amersham) at a concentration of 1.3 mg/mL. […] The assay was also carried out without 5 mM potassium phosphate.

SMILES | IC50
O=C1CCCc2c1ccc(O[C@H](Cn1ccnc1)c1ccccc1)c2CNS(=O)(=O)c1ccc2ccccc2c1 [Compound 42f, Naphthalene-2-sulfonic acid [2-((S)-2-imidazol-1-yl-1-phenyl-ethoxy)-5-oxo-5,6,7,8-tetrahydro-naphthalen-1-ylmethyl]-amide; compound with trifluoro-acetic acid] | 4 nM
O=C1CCCc2c1ccc(O[C@H](Cn1ccnc1)c1ccccc1)c2CNS(=O)(=O)Cc1ccccc1 [Compound 42g] | 1.5 nM
CSCC[C@H](NC(=O)OC(C)(C)C)C(=O)NCc1c(O[C@H](Cn2ccnc2)c2ccccc2)ccc2c1CCCC2=O [Compound 42j, ((S)-1-{[2-((S)-2-Imidazol-1-yl-1-phenyl-ethoxy)-5-oxo-5,6,7,8-tetrahydro-napthalen-1-ylmethyl]-carbamoyl}-3-methylsulfanyl-propyl)-carbamic acid tert-butyl ester] | 4.4 nM
CSCC[C@H](N)C(=O)NCc1c(O[C@H](Cn2ccnc2)c2ccccc2)ccc2c1CCCC2=O [Compound 42k, (S)-2-Amino-N-[2-((S)-2-imidazol-1-yl-1-phenyl-ethoxy)-5-oxo-5,6,7,8-tetrahydro-naphthalen-1-ylmethyl]-4-methylsulfanyl-butyramide] | 16 nM
O=C1CCCc2c1ccc(O[C@H](Cn1ccnc1)c1ccccc1)c2CCCc1ccccc1 [Compound 44b, 6-((S)-2-Imidazol-1-yl-1-phenyl-ethoxy)-5-(3-phenyl-propyl)-3,4-dihydro-2H-naphthalen-1-one] | 3.1 nM
O=C1CCC(c2cccc(Cl)c2)c2cc(O[C@H](Cn3ccnc3)c3ccccc3)ccc21 (stereo partly drawn) [Compound 47, 6-((1S)-2-Imidazolyl-1-phenylethoxy)-4-(3-chlorophenyl)-2,3,4-trihydronaphthalen-1-one] | 2 nM
CCCc1c(OC(Cn2ccnc2)c2ccccc2)ccc2c1CCCC2=O (stereo not shown) [Compound 50, 6-(2-Imidazolyl-1-phenylethoxy)-5-propyl-2,3,4-trihydro-naphthalen-1-one] | 8 nM
C=CCc1c(O[C@H](Cn2ccnc2)c2ccccc2)ccc2c1CCCC2=O [Compound 51, 6-((1S)-2-Imidazolyl-1-phenylethoxy)-5-prop-2-enyl-2,3,4-trihydronaphthalen-1-one] | 3 nM
CCCc1c(O[C@H](Cn2ccnc2)c2ccccc2)ccc2c1CCCC2=O [Compound 53] | 5 nM
CC(C)Cc1c(O[C@H](Cn2ccnc2)c2ccccc2)ccc2c1CCCC2=O [Compound 55, 6-((1S)-2-Imidazolyl-1-phenylethoxy)-5-(2-methylpropyl)-2,3,4-trihydronaphthalen-1-one] | 1 nM
C=CCc1c(O[C@H](Cn2ccnc2)c2ccccc2)ccc2c1CCC2=O [Compound 56] | 15 nM
CC(C)(Cn1ccnc1)Oc1ccc2c(c1CCc1ccccc1)CCCC2=O [Compound 58a, 6-[2-(1H-Imidazol-1-yl)-1,1-dimethylethoxy]-5-(2-phenylethyl)-3,4-dihydro-1(2H)-naphthalenone] | 1.6 nM
CCCc1c(S[C@H](Cn2ccnc2)c2ccccc2)ccc2c1CCCC2=O [Compound 62, 6-((1S)-2-imidazolyl-1-phenylethylthio)-5-propyl-2,3,4-trihydronaphthalen-1-one] | 10 nM
O=C1CCCc2c1ccc(S[C@H](Cn1ccnc1)c1ccccc1)c2CCc1ccccc1 [Compound 63] | 0.2 nM
CC(C)[C@@H](Cn1ccnc1)Oc1ccc2c(c1CS(=O)(=O)C(C)C)CCCC2=O [Compound 63g, 6-((S)-1-Imidazol-1-ylmethyl-2-methyl-propoxy)-5-(propane-2-sulfonylmethyl)-3,4-dihydro-2H-napthalen-1-one] | 9.5 nM

The next lines start with the values.

IC50 | SMILES
8 nM | O=C(NCc1c(O[C@H](Cn2ccnc2)c2ccccc2)ccc2c1CCCC2=O)c1ccccn1 [Compound 42h, Pyridine-2-carboxylic acid [2-((S)-2-imidazol-1-yl-1-phenyl-ethoxy)-5-oxo-5,6,7,8-tetrahydro-naphthalen-1-ylmethyl]-amide]
1.5 nM | O=C(NCc1c(O[C@H](Cn2ccnc2)c2ccccc2)ccc2c1CCCC2=O)c1ccccc1 [Compound 42i, N-[2-((S)-2-Imidazol-1-yl-1-phenyl-ethoxy)-5-oxo-5,6,7,8-tetrahydro-naphthalen-1-ylmethyl]-benzamide]
1.7 nM | O=C1CCCc2c1ccc(O[C@H](Cn1ccnc1)c1ccccc1)c2CN1C(=O)c2ccccc2C1=O [Compound 43, 2-{[2-((1S)-2-imidazolyl-1-phenylethoxy)-5-oxo-6,7,8-trihydronaphenyl]methyl}isoindoline-1,3-dione]
0.87 nM | O=C1CCCc2c1ccc(O[C@H](Cn1ccnc1)c1ccccc1)c2CCc1ccsc1 [Compound 44a, 6-((S)-2-Imidazol-1-yl-1-phenyl-ethoxy)-5-(2-thiophen-3-yl-ethyl)-3,4-dihydro-2H-naphthalen-1-one]
2 nM | O=C1CCCc2c1ccc(O[C@H](Cn1ccnc1)c1ccccc1)c2Cc1ccccc1 [Compound 45, 6-((1S)-2-imidazolyl-1-phenylethoxy)-5-benzyl-2,3,4-trihydro-naphthalen-one]
37 nM | O=C1CCCc2c1ccc(O[C@H](Cn1ccnc1)c1ccccc1)c2Oc1ccccc1 [Compound 46, 6-((1S)-2-imidazolyl-1-phenylethoxy)-5-phenoxy-2,3,4-trihydronaphthalen-1-one]
5 nM | C=C(C)Cc1c(O[C@H](Cn2ccnc2)c2ccccc2)ccc2c1CCCC2=O [Compound 54, 6-((1S)-2-Imidazolyl-1-phenylethoxy)-5-(2-methylprop-2-enyl)-2,3,4-trihydronaphthalen-1-one]
0.94 nM | CC(C)S(=O)(=O)Cc1c(O[C@H](Cn2ccnc2)c2cccnc2)ccc2c1CCCC2=O [Compound 63b, 6-((S)-2-Imidazol-1-yl-1-pyridin-3-yl-ethoxy)-5-(propane-2-sulfonylmethyl)-3,4-dihydro-2H-napthalen-1-one]
0.16 nM | O=C1CCCc2c1ccc(O[C@H](Cn1ccnc1)c1cccnc1)c2CS(=O)(=O)c1ccccn1 [Compound 63ba, 6-((S)-2-Imidazol-1-yl-1-pyridin-3-yl-ethoxy)-5-(pyridin-2-ylsulfonylmethyl)-3,4-dihydro-2H-napthalen-1-one]
0.3 nM | O=C1CCCc2c1ccc(O[C@H](Cn1ccnc1)c1cccnc1)c2CCc1ccccn1 [Compound 63c]
0.17 nM | O=C1CCCc2c1ccc(O[C@H](Cn1ccnc1)c1cccnc1)c2NC(=O)c1nccc2ccccc12 [Compound 63d, Isoquinoline-1-carboxylic acid [2-((S)-2-imidazol-1-yl-1-pyridin-3-yl-ethoxy)-5-oxo-5,6,7,8-tetrahydro-naphthalen-1-yl]-amide]
9.7 nM | O=C(Nc1c(O[C@H](Cn2ccnc2)c2cccnc2)ccc2c1CCCC2=O)c1cnccn1 [Compound 63e, Pyrazine-2-carboxylic acid [2-((S)-2-imidazol-1-yl-1-pyridin-3-yl-ethoxy)-5-oxo-5,6,7,8-tetrahydro-naphthalen-1-yl]-amide]
13 nM | O=C1CCCc2c1ccc(O[C@H](Cn1ccnc1)c1cccnc1)c2NC(=O)c1cnnc2ccccc12 [Compound 63f, Cinnoline-4-carboxylic acid [2-((S)-2-imidazol-1-yl-1-pyridin-3-yl-ethoxy)-5-oxo-5,6,7,8-tetrahydro-naphthalen-1-yl]-amide]
